Experimental data from patent US11498899B2, “Nitrone herbicides” (FMC Corporation, priority 2016, dated 2022).

How the values were obtained:
rice (Oryza sativa) = assay: Test B flooded paddy test, visual rating 0-100 (0 no effect, 100 complete control); details: Flood, 250 g ai/ha, applied to paddy water, rated after 13 to 15 days
[1] = test system: barnyardgrass (Echinochloa crus-galli); assay: Test A postemergence, visual injury rating 0-100; format: in vivo; details: 0 to 100 scale
kochia (Kochia scoparia) [2] = assay: Test A postemergence, visual injury rating 0-100; format: in vivo; details: 0 to 100 scale
[3] = test system: ryegrass, Italian (Italian ryegrass, Lolium multiflorum); assay: Test A postemergence, visual injury rating 0-100; format: in vivo; details: 0 to 100 scale
[4] = test system: galium (catchweed bedstraw, Galium aparine); assay: Test A postemergence, visual injury rating 0-100; format: in vivo; details: 0 to 100 scale
corn (Zea mays) = assay: Test A postemergence, visual injury rating 0-100; format: in vivo; details: 0 to 100 scale
[5] = test system: wheat (Triticum aestivum); assay: Test A postemergence, visual injury rating 0-100; format: in vivo; details: 0 to 100 scale
[6] = test system: foxtail, green (green foxtail, Setaria viridis); assay: Test A postemergence, visual injury rating 0-100; format: in vivo; details: 0 to 100 scale
[7] = test system: ragweed (common ragweed, Ambrosia elatior); assay: Test A postemergence, visual injury rating 0-100; format: in vivo; details: 0 to 100 scale
[8] = test system: blackgrass (Alopecurus myosuroides); assay: Test A postemergence, visual injury rating 0-100; format: in vivo; details: 0 to 100 scale
[9] = test system: pigweed (Amaranthus retroflexus); assay: Test A postemergence, visual injury rating 0-100; format: in vivo; details: 0 to 100 scale
[10] = test system: barnyardgrass (Echinochloa crus-galli); assay: Test A preemergence, visual injury rating 0-100 (0 no effect, 100 complete control); format: in vivo; details: for Barnyardgrass plant response rating (0 to 100 scale): 125 g ai/ha; for Barnyardgrass plant response rating: 500 g ai/ha, 0 to 100 scale
[11] = test system: barnyardgrass (Echinochloa crus-galli); assay: Test B flooded paddy test, visual rating 0-100; details: Flood, 250 g ai/ha, applied to paddy water, rated after 13 to 15 days
kochia (Kochia scoparia) [12] = assay: Test A preemergence, visual injury rating 0-100; format: in vivo
[13] = test system: ryegrass, Italian (Italian ryegrass, Lolium multiflorum); assay: Test A preemergence, visual injury rating 0-100; format: in vivo
[14] = test system: foxtail, green (green foxtail, Setaria viridis); assay: Test A preemergence, visual injury rating 0-100; format: in vivo
[15] = test system: ragweed (common ragweed, Ambrosia elatior); assay: Test A preemergence, visual injury rating 0-100; format: in vivo
[16] = test system: pigweed (Amaranthus retroflexus); assay: Test A preemergence, visual injury rating 0-100; format: in vivo
[17] = test system: ducksalad (Heteranthera limosa); assay: Test B flooded paddy test, visual rating 0-100; details: Flood, 250 g ai/ha, applied to paddy water, rated after 13 to 15 days

Compound	Rice plant response rating (0 to 100 scale) (rice (Oryza sativa))	Barnyardgrass plant response rating ([1]; 125 g ai/ha)	Barnyardgrass plant response rating ([1]; 500 g ai/ha)	Kochia plant response rating (kochia (Kochia scoparia) [2]; 125 g ai/ha)	Kochia plant response rating (kochia (Kochia scoparia) [2]; 500 g ai/ha)	Ryegrass, Italian plant response rating ([3]; 125 g ai/ha)	Ryegrass, Italian plant response rating ([3]; 500 g ai/ha)	Galium plant response rating ([4]; 125 g ai/ha)	Galium plant response rating ([4]; 500 g ai/ha)	Corn plant response rating (corn (Zea mays); 125 g ai/ha)	Corn plant response rating (corn (Zea mays); 500 g ai/ha)	Wheat plant response rating ([5]; 125 g ai/ha)	Wheat plant response rating ([5]; 500 g ai/ha)	Foxtail, Green plant response rating ([6]; 125 g ai/ha)	Foxtail, Green plant response rating ([6]; 500 g ai/ha)	Ragweed plant response rating ([7]; 125 g ai/ha)	Ragweed plant response rating ([7]; 500 g ai/ha)	Blackgrass plant response rating ([8]; 125 g ai/ha)	Blackgrass plant response rating ([8]; 500 g ai/ha)	Pigweed plant response rating ([9]; 125 g ai/ha)	further results
CC1=[N+]([O-])C(C(=O)Nc2ccccc2C(F)(F)F)C(c2ccc(C(F)(F)F)cc2)C1 (racemic) [Compound 33]	0	0	40	0	0	0	0	70	70	10	30	0	0	0	70	0	40	0	0	0	Pigweed plant response rating ([9]; 500 g ai/ha): 20; Barnyardgrass plant response rating (0 to 100 scale) [10]: 90; Barnyardgrass plant response rating [10]: 90; Barnyardgrass plant response rating (0 to 100 scale) [11]: 20; Kochia plant response rating (0 to 100 scale) (kochia (Kochia scoparia) [12]; 125 g ai/ha): 0; Kochia plant response rating (0 to 100 scale) (kochia (Kochia scoparia) [12]; 500 g ai/ha): 70; Ryegrass, Italian plant response rating (0 to 100 scale) ([13]; 125 g ai/ha): 0; Ryegrass, Italian plant response rating (0 to 100 scale) ([13]; 500 g ai/ha): 20; Foxtail, Green plant response rating (0 to 100 scale) ([14]; 125 g ai/ha): 50; Foxtail, Green plant response rating (0 to 100 scale) ([14]; 500 g ai/ha): 100; Ragweed plant response rating (0 to 100 scale) ([15]; 125 g ai/ha): 70; Ragweed plant response rating (0 to 100 scale) ([15]; 500 g ai/ha): 80; Pigweed plant response rating (0 to 100 scale) ([16]; 125 g ai/ha): 0; Pigweed plant response rating (0 to 100 scale) ([16]; 500 g ai/ha): 50; Ducksalad plant response rating (0 to 100 scale) [17]: 0
CC1=[N+]([O-])C(C(=O)Nc2cccnc2F)C(c2ccc(C(F)(F)F)cc2)C1 (racemic) [Compound 41]	0	30	90	0	20	0	70	60	70	0	0	0	30	40	80	0	40	30	50	30	Pigweed plant response rating ([9]; 500 g ai/ha): 70; Barnyardgrass plant response rating (0 to 100 scale) [10]: 90; Barnyardgrass plant response rating [10]: 100; Barnyardgrass plant response rating (0 to 100 scale) [11]: 20; Kochia plant response rating (0 to 100 scale) (kochia (Kochia scoparia) [12]; 125 g ai/ha): 0; Kochia plant response rating (0 to 100 scale) (kochia (Kochia scoparia) [12]; 500 g ai/ha): 90; Ryegrass, Italian plant response rating (0 to 100 scale) ([13]; 125 g ai/ha): 10; Ryegrass, Italian plant response rating (0 to 100 scale) ([13]; 500 g ai/ha): 70; Foxtail, Green plant response rating (0 to 100 scale) ([14]; 125 g ai/ha): 80; Foxtail, Green plant response rating (0 to 100 scale) ([14]; 500 g ai/ha): 100; Ragweed plant response rating (0 to 100 scale) ([15]; 125 g ai/ha): 80; Ragweed plant response rating (0 to 100 scale) ([15]; 500 g ai/ha): 100; Pigweed plant response rating (0 to 100 scale) ([16]; 125 g ai/ha): 90; Pigweed plant response rating (0 to 100 scale) ([16]; 500 g ai/ha): 90; Ducksalad plant response rating (0 to 100 scale) [17]: 80
CC1=[N+]([O-])C(C(=O)Nc2cccc(F)n2)C(c2ccc(C(F)(F)F)cc2)C1 (racemic) [Compound 47]	0	50	90	0	0	0	50	50	30	0	20	0	0	50	90	0	40	0	0	0	Pigweed plant response rating ([9]; 500 g ai/ha): 20; Barnyardgrass plant response rating (0 to 100 scale) [10]: 80; Barnyardgrass plant response rating [10]: 100; Barnyardgrass plant response rating (0 to 100 scale) [11]: 40; Kochia plant response rating (0 to 100 scale) (kochia (Kochia scoparia) [12]; 125 g ai/ha): 40; Kochia plant response rating (0 to 100 scale) (kochia (Kochia scoparia) [12]; 500 g ai/ha): 90; Ryegrass, Italian plant response rating (0 to 100 scale) ([13]; 125 g ai/ha): 0; Ryegrass, Italian plant response rating (0 to 100 scale) ([13]; 500 g ai/ha): 20; Foxtail, Green plant response rating (0 to 100 scale) ([14]; 125 g ai/ha): 90; Foxtail, Green plant response rating (0 to 100 scale) ([14]; 500 g ai/ha): 100; Ragweed plant response rating (0 to 100 scale) ([15]; 125 g ai/ha): 90; Ragweed plant response rating (0 to 100 scale) ([15]; 500 g ai/ha): 100; Pigweed plant response rating (0 to 100 scale) ([16]; 125 g ai/ha): 80; Pigweed plant response rating (0 to 100 scale) ([16]; 500 g ai/ha): 100; Ducksalad plant response rating (0 to 100 scale) [17]: 75
CC1=[N+]([O-])[C@@H](C(=O)Nc2ccccc2F)[C@H](c2ccc(C(F)(F)F)cc2)C1 (relative stereo) [Compound 26, trans-N-(2-fluorophenyl)-3,4-dihydro-5-methyl-3-[4-(trifluoromethyl)phenyl]-2H-pyrrole-2-carboxamide 1-oxide]	0	60	90	0	10	0	20	70	80	0	0	0	10	50	90	20	60	20	60	30	Pigweed plant response rating ([9]; 500 g ai/ha): 80; Barnyardgrass plant response rating (0 to 100 scale) [10]: 80; Barnyardgrass plant response rating [10]: 100; Barnyardgrass plant response rating (0 to 100 scale) [11]: 60; Kochia plant response rating (0 to 100 scale) (kochia (Kochia scoparia) [12]; 125 g ai/ha): 50; Kochia plant response rating (kochia (Kochia scoparia) [12]; 500 g ai/ha, 0 to 100 scale): 90; Ryegrass, Italian plant response rating (0 to 100 scale) ([13]; 125 g ai/ha): 20; Ryegrass, Italian plant response rating ([13]; 500 g ai/ha, 0 to 100 scale): 70; Foxtail, Green plant response rating (0 to 100 scale) ([14]; 125 g ai/ha): 100; Foxtail, Green plant response rating ([14]; 500 g ai/ha, 0 to 100 scale): 100; Ragweed plant response rating (0 to 100 scale) ([15]; 125 g ai/ha): 80; Ragweed plant response rating ([15]; 500 g ai/ha, 0 to 100 scale): 90; Pigweed plant response rating (0 to 100 scale) ([16]; 125 g ai/ha): 70; Pigweed plant response rating ([16]; 500 g ai/ha, 0 to 100 scale): 90; Ducksalad plant response rating (0 to 100 scale) [17]: 100
